Our source for the IC50 values is US20250034159A1, “INHIBITORS OF EPIDERMAL GROWTH FACTOR RECEPTOR” (ORIC Pharmaceuticals, Inc., priority 2021, published 2025).

The subject of one experiment is BaF3_EGFR LR/CS cells. The experiment can be described thus: Biological Activity Assay D: BaF3 cell proliferation assay, EGFR L858R/C797S mutant (BaF3 LR/CS). The class given is cell-based. As to conditions: Ba/F3 EGFR, read-out: BaF3 LR/CS IC50.
Experiment [1] addresses recombinant human EGFR exon 19 deletion/C797S double mutant protein (Homo sapiens (Human), UniProt P00533, C797S/DEL746-750). The experiment can be described thus: Biological Activity Assay C: biochemical assay against EGFR exon 19 deletion/C797S protein (EGFR d19/CS). An outline of the steps: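 IC50 values were fitted with a 4-parameter model to reaction slopes taken from 90 kinetic reads spaced 120 s apart. The Phosphosens sensor/ATP working solution was 40 uM/4 mM, and compound was dosed as 16-point dilutions at 2.5% final DMSO.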

In the next experiment the test system is BaF3_EGFR d19/CS cells. The experiment can be described thus: Biological Activity Assay D: BaF3 cell proliferation assay, EGFR exon 19 deletion/C797S (BaF3 d19/CS). Conditions: Ba/F3 EGFR, read-out: BaF3 d19/CS IC50. Format: cell-based.
Another experiment relates to Ba/F3_EGFR WT cells. The experiment can be described thus: Biological Activity Assay D: BaF3 cell proliferation assay, EGFR wild-type (BaF3 WT). Format: cell-based. As to conditions: Ba/F3 EGFR, read-out: BaF3 WT IC50.
[2] abbreviates: BaF3_EGFR LR/CS cells, ~72 hours, CellTiter-Glo.
Setting [3] is: BaF3_EGFR d19/CS cells, ~72 hours, CellTiter-Glo.
The mark [4] stands for this setting: Ba/F3_EGFR WT cells, ~72 hours, CellTiter-Glo.

Like-named read-outs stand apart in the source and are kept apart here.

recombinant human EGFR exon 19 deletion/C797S double mutant protein, sequence (P00533 other isoform, or with tags, fused parts or gaps C797S/del 1-668/del 746-750 limits assumed): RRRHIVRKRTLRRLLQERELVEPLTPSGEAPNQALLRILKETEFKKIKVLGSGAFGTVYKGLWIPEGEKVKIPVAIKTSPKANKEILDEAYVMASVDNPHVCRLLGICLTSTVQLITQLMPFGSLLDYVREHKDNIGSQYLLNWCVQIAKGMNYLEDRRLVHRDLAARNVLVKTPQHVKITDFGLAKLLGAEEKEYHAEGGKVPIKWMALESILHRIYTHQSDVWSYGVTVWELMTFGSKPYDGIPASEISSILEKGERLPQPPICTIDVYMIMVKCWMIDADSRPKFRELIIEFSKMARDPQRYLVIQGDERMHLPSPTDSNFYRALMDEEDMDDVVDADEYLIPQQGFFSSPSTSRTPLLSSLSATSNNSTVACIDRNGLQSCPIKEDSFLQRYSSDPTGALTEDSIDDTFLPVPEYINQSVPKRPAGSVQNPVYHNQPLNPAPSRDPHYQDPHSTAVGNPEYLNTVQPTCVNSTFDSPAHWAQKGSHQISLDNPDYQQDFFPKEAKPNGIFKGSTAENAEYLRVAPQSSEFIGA

In the case of `C[C@@H]1C[C@H](n2cc(-c3ncnc4oc(-c5ccccc5)cc34)c(-c3ccc(F)cc3)n2)CN1S(C)(=O)=O` [Example 212, 4-{3-(4-fluorophenyl)-1-[(3S,5R)-1-(methanesulfonyl)-5-methylpyrrolidin-3-yl]-1H-pyrazol-4-yl}-6-phenylfuro[2,3-d]pyrimidine], the IC50 in the experiment on BaF3_EGFR LR/CS cells (setting [2]) was 6.71 nM; in experiment [1] it was 0.37 nM; with BaF3_EGFR d19/CS cells (setting [3]) it was 5.28 nM; in the experiment on Ba/F3_EGFR WT cells (setting [4]), 87.8 nM.
`O=S1(=O)CC(n2cc(-c3ncnc4oc(-c5cccc(C(F)(F)F)c5)cc34)c(-c3ccc(F)cc3)n2)C1` [Example 169, 3-[3-(4-fluorophenyl)-4-{6-[3-(trifluoromethyl)phenyl]furo[2,3-d]pyrimidin-4-yl}-1H-pyrazol-1-yl]-1λ6-thietane-1,1-dione]: the IC50 was found to be 399 nM in the experiment on BaF3_EGFR LR/CS cells (setting [2]), 3.08 nM in experiment [1], 461 nM in the experiment on BaF3_EGFR d19/CS cells (setting [3]) and 11300 nM with Ba/F3_EGFR WT cells (setting [4]).
As for `CC(=O)NCCn1cc(-c2ncnc3oc(-c4ccccc4)cc23)c(-c2ccc(F)cc2)n1` [Example 134, N-{2-[3-(4-Fluorophenyl)-4-(6-phenylfuro[2,3-d]pyrimidin-4-yl)-1H-pyrazol-1-yl]ethyl}acetamide], the IC50 in the experiment on BaF3_EGFR LR/CS cells (72 h) was 33.3 nM; in experiment [1], 0.3 nM; in the experiment with BaF3_EGFR d19/CS cells (72 h), 57.1 nM; with Ba/F3_EGFR WT cells (72 h), 1030 nM.
In the case of `Cn1cnc(-c2cc3c(-c4cn(C5CC5(F)F)nc4-c4ccc(F)cc4)ncnc3o2)c1` (single isomer, unassigned) [Example 273], the IC50 in the experiment on BaF3_EGFR LR/CS cells (setting [2]) is 22.9 nM; in experiment [1] it was 0.291 nM; with BaF3_EGFR d19/CS cells (setting [3]) it was 24.8 nM; in the experiment on Ba/F3_EGFR WT cells (setting [4]), 834 nM.
In the case of `Cc1cccnc1-c1cc2c(-c3cn(C4CS(=O)(=O)C4)nc3-c3ccc(F)cc3)ncnc2o1` [Example 241, 3-{3-(4-fluorophenyl)-4-[6-(3-methylpyridin-2-yl)furo[2,3-d]pyrimidin-4-yl]-1H-pyrazol-1-yl}-1λ6-thietane-1,1-dione], the IC50 stood at 189 nM in the experiment with BaF3_EGFR LR/CS cells (setting [2]), 1.2 nM in experiment [1], 131 nM in the experiment with BaF3_EGFR d19/CS cells (setting [3]) and 1520 nM in the experiment with Ba/F3_EGFR WT cells (setting [4]).
With `CNC(=O)c1ccccc1-c1cc2c(-c3cn(C4CS(=O)(=O)C4)nc3-c3ccc(F)cc3)ncnc2o1` [Example 229, 2-{4-[1-(1,1-dioxo-1λ6-thietan-3-yl)-3-(4-fluorophenyl)-1H-pyrazol-4-yl]furo[2,3-d]pyrimidin-6-yl}-N-methylbenzamide], the IC50 in the experiment on BaF3_EGFR LR/CS cells (setting [2]) was 292 nM; in experiment [1] it was 0.67 nM; in the experiment with BaF3_EGFR d19/CS cells (setting [3]), 169 nM; in the experiment with Ba/F3_EGFR WT cells (setting [4]), 3760 nM.
The like results for `CC(C)(C)OC(=O)N1CCC=C(c2cc3c(-c4cn(C5CS(=O)(=O)C5)nc4-c4ccc(F)cc4)ncnc3o2)C1` [Example 146, tert-butyl 5-{4-[1-(1,1-dioxo-1λ6-thietan-3-yl)-3-(4-fluorophenyl)-1H-pyrazol-4-yl]furo[2,3-d]pyrimidin-6-yl}-3,6-dihydropyridine-1(2H)-carboxylate] were, in that order, 928 nM, 4.18 nM, 525 nM and 7880 nM.
For `CN(c1cccc(-c2cc3c(-c4cn(C5CS(=O)(=O)C5)nc4-c4ccc(F)cc4)ncnc3o2)c1)S(C)(=O)=O` [Example 203, N-(3-{4-[1-(1,1-dioxo-1λ6-thietan-3-yl)-3-(4-fluorophenyl)-1H-pyrazol-4-yl]furo[2,3-d]pyrimidin-6-yl}phenyl)-N-methylmethanesulfonamide], in that order: 10.6 nM, 0.14 nM, 17.1 nM and 289 nM.
For `Fc1ccc(-c2nn(C3CCCOC3)cc2-c2ncnc3oc(-c4ccccc4)cc23)cc1` (racemic) [Example 122, 4-(3-(4-Fluorophenyl)-1-(tetrahydro-2H-pyran-3-yl)-1H-pyrazol-4-yl)-6-phenylfuro[2,3-d]pyrimidine], in that order: 68 nM, 0.55 nM, 114 nM and 1850 nM.
Consider `CC(C)(Cn1cc(-c2ncnc3oc(-c4ccccc4)cc23)c(-c2ccc(F)cc2)n1)C(N)=O` [Example 158, 3-[3-(4-fluorophenyl)-4-(6-phenylfuro[2,3-d]pyrimidin-4-yl)-1H-pyrazol-1-yl]-2,2-dimethylpropanamide], for which the IC50 in the experiment with BaF3_EGFR LR/CS cells (setting [2]) amounted to 15.1 nM; in experiment [1], 0.26 nM; in the experiment with BaF3_EGFR d19/CS cells (setting [3]), 33 nM; in the experiment with Ba/F3_EGFR WT cells (setting [4]), 782 nM.
For `C[C@H]1C[C@H](n2cc(-c3ncnc4oc(-c5ccccc5)cc34)c(-c3ccc(F)cc3)n2)CN1S(C)(=O)=O` [Example 197, 4-{3-(4-fluorophenyl)-1-[(3S,5S)-1-(methanesulfonyl)-5-methylpyrrolidin-3-yl]-1H-pyrazol-4-yl}-6-phenylfuro[2,3-d]pyrimidine], the IC50 turned out to be 12.8 nM with BaF3_EGFR LR/CS cells (setting [2]), 0.45 nM in experiment [1], 46.5 nM with BaF3_EGFR d19/CS cells (setting [3]) and 139 nM with Ba/F3_EGFR WT cells (setting [4]).
As to `Fc1ccc(-c2nn([C@H]3C[C@@H](F)C3)cc2-c2ncnc3oc(-c4ccccc4)cc23)cc1` [Example 150, 4-{1-[(1s,3s)-3-fluorocyclobutyl]-3-(4-fluorophenyl)-1H-pyrazol-4-yl}-6-phenylfuro[2,3-d]pyrimidine], the IC50 came out at 42.2 nM in the experiment with BaF3_EGFR LR/CS cells (setting [2]), 1.42 nM in experiment [1], 69.9 nM in the experiment with BaF3_EGFR d19/CS cells (setting [3]) and 3320 nM with Ba/F3_EGFR WT cells (setting [4]).
For `O[C@H]1C[C@H](n2cc(-c3ncnc4oc(-c5ccccc5)cc34)c(-c3ccc(F)cc3)n2)C1` [Example 121, (1r,3r)-3-(3-(4-Fluorophenyl)-4-(6-phenylfuro[2,3-d]pyrimidin-4-yl)-1H-pyrazol-1-yl)cyclobutan-1-ol], in that order: 12.6 nM, 0.14 nM, 29.8 nM and 1180 nM.
As to `CN(C)C(=O)c1ccccc1-c1cc2c(-c3cn(C4CS(=O)(=O)C4)nc3-c3ccc(F)cc3)ncnc2o1` [Example 228, 2-{4-[1-(1,1-dioxo-1λ6-thietan-3-yl)-3-(4-fluorophenyl)-1H-pyrazol-4-yl]furo[2,3-d]pyrimidin-6-yl}-N,N-dimethylbenzamide], the IC50 was determined as 667 nM in the experiment with BaF3_EGFR LR/CS cells (setting [2]), 2.13 nM in experiment [1], 384 nM in the experiment on BaF3_EGFR d19/CS cells (setting [3]) and 4560 nM with Ba/F3_EGFR WT cells (setting [4]).
As for `NC(=O)CCCn1cc(-c2ncnc3oc(-c4ccccc4)cc23)c(-c2ccc(F)cc2)n1` [Example 147, 4-[3-(4-Fluorophenyl)-4-(6-phenylfuro[2,3-d]pyrimidin-4-yl)-1H-pyrazol-1-yl]butanamide], the IC50 came out at 73.3 nM in the experiment with BaF3_EGFR LR/CS cells (setting [2]), 0.26 nM in experiment [1], 68.6 nM with BaF3_EGFR d19/CS cells (setting [3]) and 1380 nM in the experiment with Ba/F3_EGFR WT cells (setting [4]).
`FCCCn1cc(-c2ncnc3oc(-c4ccccc4)cc23)c(-c2ccc(F)cc2)n1` [Example 156, 4-[3-(4-fluorophenyl)-1-(3-fluoropropyl)-1H-pyrazol-4-yl]-6-phenylfuro[2,3-d]pyrimidine]: the IC50 with BaF3_EGFR LR/CS cells (setting [2]) worked out at 18.8 nM; in experiment [1] it was 0.31 nM; in the experiment with BaF3_EGFR d19/CS cells (setting [3]), 30.5 nM; with Ba/F3_EGFR WT cells (setting [4]), 1480 nM.
The like results for `O=S1(=O)CC(n2cc(-c3ncnc4oc(N5CC6(CCOC6)C5)cc34)c(-c3ccc(F)cc3)n2)C1` [Example 168, 3-{3-(4-fluorophenyl)-4-[6-(6-oxa-2-azaspiro[3.4]octan-2-yl)furo[2,3-d]pyrimidin-4-yl]-1H-pyrazol-1-yl}-1λ6-thietane-1,1-dione] were, in that order, 3570 nM, 15.6 nM, 1150 nM and above 20000 nM.
For `CS(=O)(=O)[C@@H]1CC[C@H](n2cc(-c3ncnc4oc(-c5ccccc5)cc34)c(-c3ccc(F)cc3)n2)C1` (racemic) [Example 185, 4-{3-(4-fluorophenyl)-1-[3-(methanesulfonyl)cyclopentyl]-1H-pyrazol-4-yl}-6-phenylfuro[2,3-d]pyrimidine], the IC50 with BaF3_EGFR LR/CS cells (setting [2]) was determined as 256 nM; in experiment [1], 1.43 nM; in the experiment on BaF3_EGFR d19/CS cells (setting [3]), 395 nM; in the experiment on Ba/F3_EGFR WT cells (setting [4]), 6980 nM.
Turning to `Fc1ccc(-c2nn(C3CCCCC3(F)F)cc2-c2ncnc3oc(-c4ccccc4)cc23)cc1` (stereo not drawn) [Example 207, 4-[1-(2,2-difluorocyclohexyl)-3-(4-fluorophenyl)-1H-pyrazol-4-yl]-6-phenylfuro[2,3-d]pyrimidine], the IC50 turned out to be 140 nM with BaF3_EGFR LR/CS cells (setting [2]), 3.26 nM in experiment [1], 633 nM in the experiment on BaF3_EGFR d19/CS cells (setting [3]) and 4390 nM with Ba/F3_EGFR WT cells (setting [4]).
For the molecule `Cc1ncccc1-c1cc2c(-c3cn(C4CS(=O)(=O)C4)nc3-c3ccc(F)cc3)ncnc2o1` [Example 249, 3-{3-(4-fluorophenyl)-4-[6-(2-methylpyridin-3-yl)furo[2,3-d]pyrimidin-4-yl]-1H-pyrazol-1-yl}-1λ6-thietane-1,1-dione], the IC50 in the experiment with BaF3_EGFR LR/CS cells (setting [2]) came out at 103 nM; in experiment [1], 0.25 nM; with BaF3_EGFR d19/CS cells (setting [3]), 104 nM; in the experiment with Ba/F3_EGFR WT cells (setting [4]) it was 4510 nM.
Turning to `O=S1(=O)CCC(n2cc(-c3ncnc4[nH]c(-c5ccccc5)nc34)c(-c3ccc(F)cc3)n2)C1` (stereo not drawn) [Example 171, 3-[3-(4-fluorophenyl)-4-(8-phenyl-9H-purin-6-yl)-1H-pyrazol-1-yl]-1λ6-thiolane-1,1-dione], the IC50 worked out at 7.74 nM in the experiment on BaF3_EGFR LR/CS cells (setting [2]), 0.06 nM in experiment [1], 26.6 nM with BaF3_EGFR d19/CS cells (setting [3]) and 1810 nM with Ba/F3_EGFR WT cells (setting [4]).
